Reference: the NIST ThermoML archive (doi:10.1021/je700751a)

Test: osmotic coefficient (dimensionless); mn = molality of the nth substance listed, in mol/kg
Conditions: Liquid, isopiestic method

O=C([O-])[C@H](O)[C@@H](O)C(=O)[O-].[K+].[K+] [dipotassium L-tartrate] + O
Conditions	osmotic coefficient
298.15 K, m1 = 0	1
298.15 K, m1 = 0.3635	0.713
298.15 K, m1 = 0.604	0.683
298.15 K, m1 = 0.7532	0.675
298.15 K, m1 = 1.285	0.677
298.15 K, m1 = 1.702	0.691
298.15 K, m1 = 1.861	0.691
298.15 K, m1 = 2.212	0.704
298.15 K, m1 = 2.379	0.711
298.15 K, m1 = 2.466	0.705
298.15 K, m1 = 2.837	0.719
298.15 K, m1 = 3.236	0.728
298.15 K, m1 = 4.168	0.759
298.15 K, m1 = 4.379	0.77
298.15 K, m1 = 4.631	0.771
298.15 K, m1 = 4.845	0.775
298.15 K, m1 = 6.72	0.805
298.15 K, m1 = 6.869	0.804
308.15 K, m1 = 0	1
308.15 K, m1 = 0.3282	0.721
308.15 K, m1 = 0.7152	0.706
308.15 K, m1 = 0.9198	0.702
308.15 K, m1 = 1.135	0.692
308.15 K, m1 = 1.327	0.694
308.15 K, m1 = 1.854	0.705
308.15 K, m1 = 2.215	0.712
308.15 K, m1 = 2.842	0.725
308.15 K, m1 = 3.585	0.751
308.15 K, m1 = 4.177	0.764
308.15 K, m1 = 5.047	0.78
308.15 K, m1 = 5.836	0.793
308.15 K, m1 = 6.435	0.806
318.15 K, m1 = 0	1
318.15 K, m1 = 0.2468	0.741
318.15 K, m1 = 0.3446	0.745
318.15 K, m1 = 0.5504	0.721
318.15 K, m1 = 0.6181	0.712
318.15 K, m1 = 0.9764	0.707
318.15 K, m1 = 1.276	0.702
318.15 K, m1 = 1.536	0.712
318.15 K, m1 = 1.995	0.723
318.15 K, m1 = 2.646	0.737
318.15 K, m1 = 2.934	0.751
318.15 K, m1 = 4.154	0.777
318.15 K, m1 = 4.813	0.791
318.15 K, m1 = 5.749	0.804
